Data set [1] can be described thus: Determination of rapamycin in lung and blood following oropharyngeal aspiration (OPA) and oral gavage (LC-MS/MS). It counts as in vivo, male C57BL/6 mice. The conditions noted are these: 1 mg/kg; for Blood concentration of rapamycin: OPA, 72 h post-dose. The method, then: Source (for oral gavage): Rapamune Oral® (Pfizer) for oral administration, Lot No.: MWGT, Expiration: July 2016.
Animals: Male C57BL/6 mice, approximately 8 weeks of age, from Charles River Laboratories, Inc, Raleigh, NC. Animals were fed Certified Purina Rodent Chow #5002 and were furnished tap water ad libitum. The analysis of each feed batch for nutrient levels and possible contaminants was performed by the supplier, examined by the Study Director, and maintained in the study records. […] Mice were housed (one per cage) in polycarbonate cages with stainless steel bar lids accommodating a water bottle. Cage sizes are approximately 11.5″×7.5″×5″ high (70 sq. in. floor space) for mice. Contact bedding was Sani-Chips hardwood chips (P. J. Murphy Forest Products Co.; Montville, NJ). Mice were quarantined for a period of 5 days before use on a study. A veterinarian or qualified designee examined the animals prior to their release from quarantine. Temperature and relative humidity in RTI animal rooms were continuously monitored, controlled, and recorded using an automated system (Siebe/Barber-Colman Network 8000 System with Revision 4.4.1 for Signal® software [Siebe Environmental Controls (SEC)/Barber-Colman Company; Loves Park, IL]). The target environmental ranges were 64-79° F. (18° C.-26° C.) for temperature and 30-70% relative humidity, with a 12-h light cycle per day. At the end of the in-life phase, the mice were euthanized by overexposure to carbon dioxide. […]
Dosing: Each animal was weighed prior to dosing to determine the amount of dose to be administered. […] The dose administered to each animal was determined from the weight of the full syringe minus that of the empty syringe. The dosing time was recorded. […]
The concentrations of standards were arranged so that each standard came from an alternate stock standard. A six-point calibration curve, each made in triplicate, was employed for analyte quantitation. […] The concentration range determined was from 1-2000 ng/mL in blood and 2-2000 ng/mL in lung homogenate. […]

Data set [2] concerns phosphorylated S6 protein. The conditions noted are these: lung tissue concentration.
Source text: In the mouse strain used (C57bl/6), the mouse airway and alveolar epithelial cells have constitutively active (phosphorylated, “p”) S6 protein.
Data set [3] has as its system renal angiomyolipomas. The following applies: oral, up to 2 years, 16 patients; cited from earlier work.
The conditions of data set [4]: 2012 meta-analysis; cited from earlier work.

Here are results for three compounds from patent US12171874B2 (OrphAI Therapeutics Inc., priority 2013, dated 2024).

Entries after “also recorded” stand apart in the source; their conditions may differ. A value given as a limit tells only on which side of the number the result lay.

As to `CO[C@H]1C[C@@H]2CC[C@@H](C)[C@@](O)(O2)C(=O)C(=O)N2CCCC[C@H]2C(=O)O[C@H]([C@H](C)C[C@@H]2CC[C@@H](O)[C@H](OC)C2)CC(=O)[C@H](C)/C=C(\C)[C@@H](O)[C@@H](OC)C(=O)[C@H](C)C[C@H](C)/C=C/C=C/C=C/1C` [Rapamycin, (3S,6R,7E,9R,10R,12R,14S,15E,17E,19E,21S,23S,26R,27R,34aS)-9,10,12,13,-14,21,22,23,24,25,26,27,32,33,34,34a-hexadecahydro-9,27-dihydroxy-3-[(1R)-2-[(1S,3R,4R)-4-hydroxy-3-methoxycyclohexyl]-1-methylethyl]-10,21-dimethox-y-6,8,12,14,20,26-hexamethyl-23,27-epoxy-3H-pyrido[2,1-c][1,4]oxaazacyclohentriacontine-1,5,11,28,29(4H,6H,31H)-pentone], the “Blood concentration of rapamycin” value in data set [1] (group) is listed as “below the limit of quantitation; also recorded: undetectable”; in data set [1] (individual animal) it was “<ELOQ”. The “Lung concentration of rapamycin” value in data set [1] (gavage (Rapamune Oral), 1 h post-dose, individual animal) is reported as “<LOQ”. In data set [2], the “Drug in the lung that substantially abrogates mTOR signaling as measured by pS6” value is listed as “about 70 ng/g”. For the same compound, the Renal angiomyolipoma response result in data set [3] is recorded as “sustained regression”.
As to `CO[C@H]1C[C@@H]2CC[C@@H](C)[C@@](O)(O2)C(=O)C(=O)N2CCCC[C@H]2C(=O)O[C@H]([C@H](C)C[C@@H]2CC[C@@H](OCCO)[C@H](OC)C2)CC(=O)[C@H](C)/C=C(\C)[C@@H](O)[C@@H](OC)C(=O)[C@H](C)C[C@H](C)/C=C/C=C/C=C/1C` [everolimus], the “Cancer patients that may experience mild grade (pulmonary) toxicity” value in data set [4] was 10%.
Take `CO[C@H]1C[C@@H]2CC[C@@H](C)[C@@](O)(O2)C(=O)C(=O)N2CCCC[C@H]2C(=O)O[C@H]([C@H](C)C[C@@H]2CC[C@@H](OC(=O)C(C)(CO)CO)[C@H](OC)C2)CC(=O)[C@H](C)/C=C(\C)[C@@H](O)[C@@H](OC)C(=O)[C@H](C)C[C@H](C)/C=C/C=C/C=C/1C` [temsirolimus]: in data set [4], the “Cancer patients that may experience mild grade (pulmonary) toxicity” value is reported as 10%.
